Measurements taken from patent US20080124741A1, “Canine Cholecystokinin 1 Receptor Materials And Their Use” (priority 2004, published 2008).
Positions count from the first letter of the chain named. Where two headings read alike, the source gives them in different places. Square brackets hold non-standard residues; d marks the D form. Ends that are not written are not given here. sY = N[C@@H](Cc1ccc(OS(=O)(=O)O)cc1)C(=O)O

Tests used:
canine CCK2 receptor = target: T1, canine CCK2 receptor (Canis lupus familiaris, UniProt P30552); assay: competition binding of [125I]-BH-CCK-8S at canine CCK2 receptor; settings: for fold higher affinity at the canine CCK2 receptor compared to the canine CCK1 receptor: canine CCK2 over canine CCK1
T1 sequence (P30552 1-453): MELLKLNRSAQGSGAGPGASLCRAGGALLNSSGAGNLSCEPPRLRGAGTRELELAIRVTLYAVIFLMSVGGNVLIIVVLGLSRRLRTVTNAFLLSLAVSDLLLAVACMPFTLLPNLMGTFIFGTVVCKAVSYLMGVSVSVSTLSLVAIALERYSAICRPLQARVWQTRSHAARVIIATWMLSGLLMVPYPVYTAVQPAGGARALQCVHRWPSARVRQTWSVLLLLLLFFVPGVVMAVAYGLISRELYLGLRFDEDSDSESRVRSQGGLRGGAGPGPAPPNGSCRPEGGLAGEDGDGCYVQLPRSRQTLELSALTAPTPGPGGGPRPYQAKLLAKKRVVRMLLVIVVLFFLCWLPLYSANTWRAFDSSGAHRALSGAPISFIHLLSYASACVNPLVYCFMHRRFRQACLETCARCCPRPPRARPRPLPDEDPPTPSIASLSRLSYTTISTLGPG

canine CCK1 receptor = target: T2, canine CCK1 receptor (Canis lupus familiaris, UniProt Q5D0K2); assay: competition binding of [125I]-BH-CCK-8S at cloned canine CCK1 receptor stably expressed in CHO-K cells
T2 construct: expressed in transfected cells
T2 sequence (Q5D0K2 1-428): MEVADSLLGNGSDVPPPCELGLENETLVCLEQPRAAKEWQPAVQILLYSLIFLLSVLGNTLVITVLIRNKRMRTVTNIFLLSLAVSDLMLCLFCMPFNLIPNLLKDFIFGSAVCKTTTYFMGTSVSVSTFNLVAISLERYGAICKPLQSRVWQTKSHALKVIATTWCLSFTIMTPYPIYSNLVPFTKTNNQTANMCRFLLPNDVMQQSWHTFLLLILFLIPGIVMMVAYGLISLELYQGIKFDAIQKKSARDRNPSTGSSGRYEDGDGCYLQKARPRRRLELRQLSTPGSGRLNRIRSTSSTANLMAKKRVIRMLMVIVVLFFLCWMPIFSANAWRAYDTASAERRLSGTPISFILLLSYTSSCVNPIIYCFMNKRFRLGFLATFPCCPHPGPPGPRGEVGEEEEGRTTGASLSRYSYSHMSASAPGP
Method: The plasmids described above were used for stable transfection into CHO-K cells (Chinese Hamster Ovary) (American Type Culture Collection, Rockville, Md.) using the Effectene transfection method (Qiagen, Chatsworth, Calif.) with 2 μg plasmid for each 100 mm^2 culture dish. These cells were maintained in Ham's F12 selection medium with 10% fetal bovine serum, 2 mM L-glutamine, penicillin (50 U ml^−1), streptomycin (50 mg ml^−1) and Geneticin (0.7 mg ml^−1) (Invitrogen) at 37° C. in a humidified incubator under an atmosphere containing 5% CO2. Media was changed every other day. Isolated Geneticin resistant colonies were picked from the 100 mm^2 dishes and grown to confluence in 6 well cluster dishes. 24 individual stable clones were used in a Fluorometric Imaging Plate Reader (FLIPR) assay with CCK-8S (0.01 nM-1 μM) to select a clone with a good signal-to-noise window for use in further experiments.
(§1) For radioligand binding studies, the cells were harvested by cell scraping and resulting pellets immediately frozen at −80° C. (approximately 50×10^6 cells/pellet). Frozen cell pellets were defrosted on ice in 15 ml of assay buffer (composition; 10 mM HEPES, 130 mM NaCl, 4.7 mM KCl, 5 mM MgCl2, bacitracin 0.089; pH 7.2 at 21±3° C.) and then homogenized (setting 10, 7×3 s; Polytron; Brinkmann Instruments). The homogenate was centrifuged (800×g for 10 min) and the pellet discarded. The supernatant was re-centrifuged (39,800×g for 25 min) and the final pellet re-suspended in 20 ml assay buffer (cell concentration: 25×10^5 cells ml^−1). Protein concentration was determined using BCA Protein Assay Kit (Pierce, Rockford, Ill.). All binding assays were conducted in 96 well Multiscreen GF/B filter plates (Millipore, Billerica, Mass., USA) that were pre-soaked in assay buffer for 1 h. […] Nonspecific binding was determined by inclusion of 10 μM 2-NAP (a CCK1 receptor selective antagonist; see, e.g., Hull et al., 1993, Br. J. Pharmacol., 108:734-740). All radioligand binding studies were conducted in the presence of the CCK2 receptor-selective antagonist PD-134,308 at a concentration estimated to occupy 99% of human CCK2 receptors (0.3 μM; se, e.g., Hughes et al., 1990, Proc. Natl. Acad. Sci. U.S.A., 87(17):6728-6732; Hunter et al., 1993, Mol. Pharmacol., 43:595-602). The bound radioactivity was separated by filtration using a Multiscreen Resist manifold (Millipore, Billericay, Mass., USA). The filters were washed three times with ice-cold PBS (pH 7.5) and radioactivity retained on the filters was measured by liquid scintillation counting using a TopCount (Packard BioScience, Boston, Mass.). All experiments were performed in triplicate.
(§2) Equilibrium dissociation constant (K1) values were assumed to be equal to the IC50 values obtained from the logistic curve fit as the radiolabel concentrations used in the assays were always below the KD of the radiolabel. The equilibrium dissociation constants (K1) values were calculated from the midpoint locations (IC50) following Cheng & Prusoff, eqn.
(§3) Competition-inhibition studies were conducted on the canine and human CCK1 receptor using a cell-protein concentration within the linear range of the cell number curve (80 μg/ml, cell number curves not shown).

human CCK1 receptor = target: T3, human CCK1 receptor (Homo sapiens, UniProt P32238); assay: competition binding of [125I]-BH-CCK-8S at cloned human CCK1 receptor
T3 construct: expressed in transfected cells
T3 sequence (P32238 1-428): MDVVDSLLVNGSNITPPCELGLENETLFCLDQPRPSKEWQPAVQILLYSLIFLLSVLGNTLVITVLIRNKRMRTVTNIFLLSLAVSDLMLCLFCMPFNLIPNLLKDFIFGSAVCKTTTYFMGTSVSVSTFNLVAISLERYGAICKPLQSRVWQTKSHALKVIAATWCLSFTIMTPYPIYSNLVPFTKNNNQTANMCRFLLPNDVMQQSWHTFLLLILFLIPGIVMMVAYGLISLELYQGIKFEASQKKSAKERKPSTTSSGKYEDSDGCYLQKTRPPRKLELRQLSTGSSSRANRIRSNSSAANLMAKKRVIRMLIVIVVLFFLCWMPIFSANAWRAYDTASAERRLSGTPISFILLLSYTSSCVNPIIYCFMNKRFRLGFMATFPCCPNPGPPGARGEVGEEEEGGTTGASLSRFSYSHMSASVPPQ
Method: as §1, §2, §3

Canine CCK1: Wild-type = target: T4, Canine CCK1: Wild-type (Canis lupus familiaris, UniProt Q5D0K2); assay: competition binding at wild-type canine CCK1 receptor transiently transfected in HEK cells; settings: n = 3, ± s.e. mean; for Ki: read-out: pKI (affinity value, -log equilibrium dissociation constant) (converted)
T4 construct: The ORF encodes a 428 amino-acid protein; expressed in transfected cells; host or cells: HEK-293 cells, transient
T4 sequence (Q5D0K2 1-428): T2 sequence (Q5D0K2 1-428)
Method: (§4) For radioligand binding studies, the cells were harvested by cell scraping and resulting pellets immediately frozen at −80° C. (approximately 50×10^6 cells/pellet). Frozen cell pellets were defrosted on ice in 15 ml of assay buffer (composition; 10 mM HEPES, 130 mM NaCl, 4.7 mM KCl, 5 mM MgCl2, bacitracin 0.089; pH 7.2 at 21±3° C.) and then homogenized (setting 10, 7×3 s; Polytron; Brinkmann Instruments). The homogenate was centrifuged (800×g for 10 min) and the pellet discarded. The supernatant was re-centrifuged (39,800×g for 25 min) and the final pellet re-suspended in 20 ml assay buffer (cell concentration: 25×10^5 cells ml^−1). Protein concentration was determined using BCA Protein Assay Kit (Pierce, Rockford, Ill.). All binding assays were conducted in 96 well Multiscreen GF/B filter plates (Millipore, Billerica, Mass., USA) that were pre-soaked in assay buffer for 1 h. […] The bound radioactivity was separated by filtration using a Multiscreen Resist manifold (Millipore, Billericay, Mass., USA). The filters were washed three times with ice-cold PBS (pH 7.5) and radioactivity retained on the filters was measured by liquid scintillation counting using a TopCount (Packard BioScience, Boston, Mass.). All experiments were performed in triplicate.
as §2
(§5) In order to investigate these variants, plasmid DNAs containing the respective variant canine CCK1 receptor cDNAs and the wild type cDNA were transiently transfected into HEK-293 cells using Lipofectamine 200 transfection reagent and Opti-MEM medium (Invitrogen). Cells were harvested at 48-72 hours after transfection and the pellets were frozen at −80° C. The cells were then harvested, assayed, and the data analyzed as described above.

Canine CCK1: Variant #1 = target: T5, Canine CCK1: Variant #1 (Canis lupus familiaris, UniProt Q5D0K2, G258S/L413V/V400A); assay: competition binding at variant #1 canine CCK1 receptor transiently transfected in HEK cells; settings: Canine CCK1 variant #1, transiently transfected in HEK cells, n = 3, ± s.e. mean; for Ki: read-out: pKI (affinity value, -log equilibrium dissociation constant) (converted)
T5 construct: plasmid DNAs containing the respective variant canine CCK1 receptor cDNAs and the wild type cDNA were transiently transfected; expressed in transfected cells; host or cells: HEK-293 cells, transient
T5 sequence (Q5D0K2 1-428 G258S/V400A/L413V): T2 sequence (Q5D0K2 1-428) with G258S, V400A, L413V
Method: as §4, §2, §5

[1] = target: T6, guinea-pig pancreatic CCK1 receptors (Cavia porcellus, UniProt Q63931); settings: guinea-pig pancreatic CCK1 receptors (Takinami et al., 1997); cited from earlier work
T6 construct: host or cells: guinea-pig pancreas
T6 sequence (Q63931 1-430): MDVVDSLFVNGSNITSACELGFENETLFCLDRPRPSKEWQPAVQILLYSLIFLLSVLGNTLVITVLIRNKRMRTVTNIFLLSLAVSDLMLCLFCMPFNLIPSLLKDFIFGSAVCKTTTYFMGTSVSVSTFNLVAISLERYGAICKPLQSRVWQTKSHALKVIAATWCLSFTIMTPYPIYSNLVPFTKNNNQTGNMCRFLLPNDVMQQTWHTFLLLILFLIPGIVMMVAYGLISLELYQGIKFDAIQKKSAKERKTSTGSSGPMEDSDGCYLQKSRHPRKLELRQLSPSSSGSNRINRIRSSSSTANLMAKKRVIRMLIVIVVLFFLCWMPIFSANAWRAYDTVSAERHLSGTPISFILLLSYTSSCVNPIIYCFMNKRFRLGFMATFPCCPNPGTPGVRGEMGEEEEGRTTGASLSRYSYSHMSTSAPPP

[2] = tested on: putative CCK1 receptor binding sites labeled with [3H]-L-364,718; settings: canine intestine (Mao et al., 1995); cited from earlier work
[3] = target: T7, wild-type canine CCK1 receptor (canine, UniProt Q5D0K2 1-428); assay: saturation radioligand binding, membranes of stably transfected CHO cells, first phase of the isotherm
T7 construct: Full-length receptor, stably expressed in CHO-K cells or transiently in HEK-293 cells; It was assayed as membrane preparations of those cells; also called canine cholecystokinin 1 receptor; control wild-type canine CCK1R protein
T7 sequence: T2 sequence (Q5D0K2 1-428)
Method: The homogenate was centrifuged (800×g for 10 min) and the pellet discarded. The supernatant was re-centrifuged (39,800×g for 25 min) and the final pellet re-suspended in 20 ml assay buffer (cell concentration: 25×10⁵ cells ml⁻¹). […] All binding assays were conducted in 96 well Multiscreen GF/B filter plates (Millipore, Billerica, Mass., USA) that were pre-soaked in assay buffer for 1 h. For competition studies, cell membranes (45 μl) were incubated with 60 μM [¹²⁵I]-BH-CCK-8S (50 μl) in the presence of competing ligand (15 μl) for 90 min (total volume of 150 μl). […] The bound radioactivity was separated by filtration using a Multiscreen Resist manifold (Millipore, Billericay, Mass., USA). The filters were washed three times with ice-cold PBS (pH 7.5) and radioactivity retained on the filters was measured by liquid scintillation counting using a TopCount (Packard BioScience, Boston, Mass.). All experiments were performed in triplicate.

[4] = target: T8, canine CCK1 receptor variant #2 (canine, UniProt Q5D0K2 1-428); assay: radioligand binding (20 pM [125I]-BH-CCK-8S) against increasing membrane protein, transiently transfected HEK cells
T8 construct: Six amino-acid differences from wild type; Transiently expressed in HEK-293 cells and assayed as membrane preparations; also called canine CCK1 variant #2 receptor
T8 chain: T2 sequence (Q5D0K2 1-428) with S12G, L27P, L99P, G258S, V400A, L413V

[5] = Canine CCK2, [125I]-BH-CCK-8S radiolabel, n = 3, ± s.e. mean
[6] = Canine CCK2, [125I]-BH-CCK-8S radiolabel, n = 3, ± s.e. mean, read-out: pKI (affinity value, -log equilibrium dissociation constant) (converted)
[7] = Canine CCK1, CHO-K cells, [125I]-BH-CCK-8S radiolabel, n = 3, ± s.e. mean
[8] = Human CCK1, [125I]-BH-CCK-8S radiolabel, n = 3, ± s.e. mean
[9] = Canine CCK1, CHO-K cells, [125I]-BH-CCK-8S radiolabel, n = 3, ± s.e. mean, read-out: pKI (affinity value, -log equilibrium dissociation constant) (converted)
[10] = Human CCK1, [125I]-BH-CCK-8S radiolabel, n = 3, ± s.e. mean, read-out: pKI (affinity value, -log equilibrium dissociation constant) (converted)

Molecule: CN1C(=O)[C@@H](NC(=O)c2cc3ccccc3[nH]2)N=C(c2ccccc2)c2ccccc21 [L-364,718]
- nH (Hill slope) (canine CCK2 receptor; [5]): 0.87 ± 0.06
- Ki (canine CCK2 receptor; [6]): 0.024 µM

Molecule: Cc1cccc(NC(=O)N[C@@H]2N=C(c3ccccc3)c3ccccc3N(C)C2=O)c1 [L-365,260, 3R(+)—N-(2,3-dihydro-1-methyl-2-oxo-5-phenyl-1H-1,4-benzodiazepin-3-yl)-N′-(3-methylphenyl)urea]
- Ki (canine CCK1 receptor): 0.245 µM
- nH (Hill slope) (canine CCK1 receptor; [7]): 1.17 ± 0.09
- Ki (human CCK1 receptor): 0.245 µM
- nH (Hill slope) (human CCK1 receptor; [8]): 1.32 ± 0.14
- Ki (canine CCK2 receptor): 0.0933 µM
- nH (Hill slope) (canine CCK2 receptor; [5]): 0.95 ± 0.08
- fold higher affinity at the canine CCK2 receptor compared to the canine CCK1 receptor (canine CCK2 receptor): ~2.6 fold
- nH (Hill slope) (Canine CCK1: Wild-type): 0.96 ± 0.32
- Ki (Canine CCK1: Wild-type): 0.219 µM
- nH (Hill slope) (Canine CCK1: Variant #1): 1.08 ± 0.33
- Ki (Canine CCK1: Variant #1): 0.155 µM

Molecule: CNc1cccc(NC(=O)N[C@@H]2N=C(c3ccccn3)c3ccccc3N(CC(=O)C(C)(C)C)C2=O)c1 [YF476]
- nH (Hill slope) (canine CCK1 receptor; [7]): 0.88 ± 0.08
- Ki (canine CCK1 receptor; [9]): 0.0123 µM
- nH (Hill slope) (human CCK1 receptor; [8]): 0.95 ± 0.07
- Ki (human CCK1 receptor; [10]): 0.0135 µM
- nH (Hill slope) (canine CCK2 receptor; [5]): 0.91 ± 0.10
- Ki (canine CCK2 receptor; [6]): 0.00105 µM
- fold higher affinity at the canine CCK2 receptor compared to the canine CCK1 receptor (canine CCK2 receptor): ~12 fold
- nH (Hill slope) (Canine CCK1: Wild-type): 0.60 ± 0.22
- Ki (Canine CCK1: Wild-type): 0.012 µM
- nH (Hill slope) (Canine CCK1: Variant #1): 1.14 ± 0.37
- Ki (Canine CCK1: Variant #1): 0.0151 µM
- reported pK1 value [1]: ~6.5

Molecule: Cc1cccc(NC(=O)N[C@@H]2N=C(c3ccccc3)c3ccccc3N(CC(=O)c3ccccc3C)C2=O)c1 [YM022, 1-[(R)-2,3-dihydro-1-(2-methylphenacyl)-2-oxo-5-phenyl-1H-1,4-benzodiazepin-3-yl]-3-(3-methylphenyl)urea]
- nH (Hill slope) (canine CCK1 receptor; [7]): 1.09 ± 0.13
- Ki (canine CCK1 receptor; [9]): 0.00525 µM
- nH (Hill slope) (human CCK1 receptor; [8]): 1.15 ± 0.14
- Ki (human CCK1 receptor; [10]): 0.00776 µM
- Ki (canine CCK2 receptor): 0.000195 µM
- nH (Hill slope) (canine CCK2 receptor; [5]): 0.92 ± 0.10
- fold higher affinity at the canine CCK2 receptor compared to the canine CCK1 receptor (canine CCK2 receptor): 27 fold
- nH (Hill slope) (Canine CCK1: Wild-type): 1.17 ± 0.30
- Ki (Canine CCK1: Wild-type): 0.011 µM
- nH (Hill slope) (Canine CCK1: Variant #1): 1.39 ± 0.39
- Ki (Canine CCK1: Variant #1): 0.00832 µM
- inhibitory effect at [3H]-L-364,718 binding sites [2]: no inhibitory effect

Molecule: CCCCCN(CCCOC)C(=O)[C@@H](CCC(=O)O)NC(=O)c1ccc(Cl)c(Cl)c1 [dexloxiglumide, (R)-4-(3,4-Dichloro-benzoylamino)-4-[(3-methoxy-propyl)-pentyl-carbamoyl]-butyric acid]
- nH (Hill slope) (canine CCK1 receptor; [7]): 0.83 ± 0.13
- Ki (canine CCK1 receptor; [9]): 0.0295 µM
- fold higher affinity at the canine CCK1 receptor (compared to canine CCK2) (canine CCK1 receptor; canine CCK1 over canine CCK2): 93 fold
- nH (Hill slope) (human CCK1 receptor; [8]): 0.91 ± 0.18
- Ki (human CCK1 receptor; [10]): 0.0295 µM
- nH (Hill slope) (canine CCK2 receptor; [5]): 0.71 ± 0.09
- Ki (canine CCK2 receptor; [6]): 2.75 µM
- nH (Hill slope) (Canine CCK1: Wild-type): 1.33 ± 0.43
- Ki (Canine CCK1: Wild-type): 0.0166 µM
- nH (Hill slope) (Canine CCK1: Variant #1): 0.90 ± 0.17
- Ki (Canine CCK1: Variant #1): 0.0166 µM

B1: [^125I]-BH-CCK-8S (peptide, UniProt P06307 96-103, looked up)
peptide: {BH(125I)}-D[sY]MGWMDF
modifications: not fully specified (C-terminus); ends and bridges not checked; also: sulfated, site not given here, 125I Bolton-Hunter conjugate, site not given here
notes: Radioligand; also called Bolton-Hunter conjugated sulfated CCK-8
- pKD [3]: 10.5 pKD (negative log of KD)
- binding result [4]: no binding (tested: 2500 µg/ml protein)
